Data reported in patent publication EP4700095A1, “INK COMPOSITION FOR INK-JET PRINTING” (Sakata INX Corporation, priority 2023, dated 2024).

Assay: SP value (solubility parameter) calculated by formula 1
Settings: 25°C (298 K), formula {(ΔH - RT)/(M/D)}^1/2

OCC(O)CO [Glycerin, glycerin]
SP value: 14.9 (cal/cm^3)^1/2

CC(O)CO (stereo not drawn) [Propylene glycol, 1,2-propanediol]
SP value: 12.6 (cal/cm^3)^1/2

CC(O)COC(C)COC(C)CO (stereo not drawn) [Tripropylene glycol]
SP value: 11.3 (cal/cm^3)^1/2
